Laboratory results taken from ChEMBL document CHEMBL6071123, “Design, synthesis and biological evaluation of 5-amino-1H-pyrazole-4-carboxamide derivatives as pan-FGFR covalent inhibitors” (Eur J Med Chem, 2024).
Active and inactive are the calls of the source. No cut-off for these calls is given here.

Legend:
[1] = biological target: Fibroblast growth factor receptor 1 (Homo sapiens, UniProt P11362); assay: biochemical; assay type: cell-based
Description: Inhibition of N-terminal 6-his tagged human wild type FGFR1 (458 to 765 residues) expressed in Escherichia coli BL21 cells using Tyr 04 peptide as substrate incubated for 1 hr by FRET based Z-lyte assay

[2] = Metabolic stability in human liver microsomes assessed as intrinsic clearance at 1 uM measured upto 45 mins in presence of NADPH by HPLC-MS/MS analysis; assay type: ADME, Microsome; conditions: read-out: CLH
[3] = Metabolic stability in human liver microsomes assessed as hepatic clearance at 1 uM measured upto 45 mins in presence of NADPH by HPLC-MS/MS analysis; assay type: ADME, Microsome
[4] = Metabolic stability in human liver microsomes assessed as half life at 1 uM measured upto 45 mins in presence of NADPH by HPLC-MS/MS analysis; assay type: ADME, Microsome
[5] = Metabolic stability in human liver microsomes assessed as hepatic extraction ratio at 1 uM measured upto 45 mins in presence of NADPH by HPLC-MS/MS analysis; assay type: ADME, Microsome; conditions: read-out: ERH
NCI-H520 = assay: Antiproliferative activity against human NCI-H520 cells measured after 3 days by CCK-8 method; assay type: functional, cell-based; conditions: NCI-H520, 72 h
SNU-16 [6] = assay: Antiproliferative activity against human SNU-16 cells measured after 3 days by CCK-8 method; assay type: functional, cell-based; conditions: SNU-16, 72 h
[7] = Antiproliferative activity against human KATO III stomach cancer cell line measured after 3 days by CCK-8 method; assay type: functional, cell-based; conditions: 72 h
[8] = biological target: Fibroblast growth factor receptor 2 (Homo sapiens, UniProt P21802, V564F); assay: Inhibition of FGFR2 V564F mutant (unknown origin) using (Poly (4:1 Glu, Tyr) peptide as substrate by ADP-Glo kinase assay
Fibroblast growth factor receptor 2 (Homo sapiens, UniProt P21802, V564F), sequence (P21802 22-821 V564F limits assumed): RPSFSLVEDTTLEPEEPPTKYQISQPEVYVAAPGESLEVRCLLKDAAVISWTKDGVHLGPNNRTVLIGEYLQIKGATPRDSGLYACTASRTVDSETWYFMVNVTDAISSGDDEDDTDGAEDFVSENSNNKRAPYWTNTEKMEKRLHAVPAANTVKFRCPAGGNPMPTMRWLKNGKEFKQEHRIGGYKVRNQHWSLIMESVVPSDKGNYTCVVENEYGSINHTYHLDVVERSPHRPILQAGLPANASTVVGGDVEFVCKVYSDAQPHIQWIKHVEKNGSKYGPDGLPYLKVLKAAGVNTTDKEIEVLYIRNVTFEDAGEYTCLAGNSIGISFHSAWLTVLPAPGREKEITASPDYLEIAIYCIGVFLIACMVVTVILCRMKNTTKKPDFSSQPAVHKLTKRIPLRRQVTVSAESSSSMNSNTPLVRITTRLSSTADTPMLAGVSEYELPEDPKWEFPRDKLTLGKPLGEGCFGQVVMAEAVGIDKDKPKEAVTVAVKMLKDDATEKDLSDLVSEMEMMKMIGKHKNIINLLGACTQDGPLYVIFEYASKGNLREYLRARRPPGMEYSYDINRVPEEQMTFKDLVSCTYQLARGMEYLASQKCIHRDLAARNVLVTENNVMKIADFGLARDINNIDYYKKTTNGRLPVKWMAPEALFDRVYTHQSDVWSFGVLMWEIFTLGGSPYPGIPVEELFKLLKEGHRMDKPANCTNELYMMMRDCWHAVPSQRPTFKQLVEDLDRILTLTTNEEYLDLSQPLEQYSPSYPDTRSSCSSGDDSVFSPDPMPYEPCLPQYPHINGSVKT

BaF3 [9] = assay: Effect on FGFR2 protein level in mouse BaF3 cells harbouring FGFR2 V564F mutant at 0 to 1000 nM measured after 6 hrs by Western blot analysis; assay type: functional, cell-based; conditions: dose 0-1000 nM
[10] = Induction of cell cycle arrest in human KATO III stomach cancer cell line assessed as accumulation of cells at G1 phase at 100 nM measured after 24 hrs by PI staining based flow cytometry analysis (reference value: 29.8%); assay type: functional
[11] = Induction of cell cycle arrest in human KATO III stomach cancer cell line assessed as accumulation of cells at G1 phase at 10 nM measured after 24 hrs by PI staining based flow cytometry analysis (reference value: 29.8%); assay type: functional
BaF3 [12] = assay: Inhibition of AKT phosphorylation in mouse BaF3 cells harbouring FGFR2 V564F mutant measured after 6 hrs by Western blot analysis; assay type: cell-based; conditions: dose 0-1000 nM
[13] = Induction of apoptosis in human KATO III stomach cancer cell line assessed as early apoptotic cells at 1000 nM incubated for 48 hrs by annexin V-FITC/PI staining based flow cytometry analysis (reference value: 3.40%); assay type: functional
[14] = Induction of apoptosis in human KATO III stomach cancer cell line assessed as necrotic cells at 100 nM incubated for 48 hrs by annexin V-FITC/PI staining based flow cytometry analysis (reference value: 0.072%); assay type: functional
[15] = biological target: T1, Fibroblast growth factor receptor 2 (Homo sapiens, UniProt P21802); assay: biochemical; assay type: cell-based
Target sequence in this assay (P21802 whole entry): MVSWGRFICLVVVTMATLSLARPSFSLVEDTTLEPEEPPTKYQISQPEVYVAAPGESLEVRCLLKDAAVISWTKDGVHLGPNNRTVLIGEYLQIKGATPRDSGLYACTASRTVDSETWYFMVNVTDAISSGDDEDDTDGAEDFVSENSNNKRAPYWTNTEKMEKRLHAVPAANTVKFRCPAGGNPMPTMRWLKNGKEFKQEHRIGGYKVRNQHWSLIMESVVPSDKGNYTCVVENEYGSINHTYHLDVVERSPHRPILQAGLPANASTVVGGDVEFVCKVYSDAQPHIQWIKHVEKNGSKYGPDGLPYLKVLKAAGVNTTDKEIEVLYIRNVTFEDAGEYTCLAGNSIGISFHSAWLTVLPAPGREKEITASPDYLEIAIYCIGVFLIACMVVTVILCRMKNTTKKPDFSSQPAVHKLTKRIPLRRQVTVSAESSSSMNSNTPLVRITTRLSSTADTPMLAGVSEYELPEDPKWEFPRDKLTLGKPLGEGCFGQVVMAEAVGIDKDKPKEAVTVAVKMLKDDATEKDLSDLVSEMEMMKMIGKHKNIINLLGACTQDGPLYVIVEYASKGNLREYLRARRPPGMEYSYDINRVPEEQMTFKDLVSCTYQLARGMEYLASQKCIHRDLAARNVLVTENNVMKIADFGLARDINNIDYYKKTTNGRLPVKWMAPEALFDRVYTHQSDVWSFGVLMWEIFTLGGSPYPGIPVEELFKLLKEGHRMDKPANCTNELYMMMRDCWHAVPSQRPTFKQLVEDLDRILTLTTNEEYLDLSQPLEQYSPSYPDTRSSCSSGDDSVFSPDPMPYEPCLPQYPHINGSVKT
Description: Inhibition of N-terminal 6-his tagged human wild type FGFR2 (458 to 768 residues) expressed in Escherichia coli BL21 cells using Tyr 04 peptide as substrate incubated for 1 hr by FRET based Z-lyte assay

[16] = biological target: T1, Fibroblast growth factor receptor 2; assay: Inhibition of FGFR2 phosphorylation in human SNU-16 measured after 2 hrs by Western blot analysis; assay type: cell-based; conditions: dose 0-300 nM
Target sequence in this assay (P21802 22-821 limits assumed): as the sequence (P21802 22-821 V564F limits assumed) above, with F543V counted along it

[17] = Induction of cell cycle arrest in human KATO III stomach cancer cell line assessed as accumulation of cells at G2 phase at 1000 nM measured after 24 hrs by PI staining based flow cytometry analysis (reference value: 42.5%); assay type: functional
[18] = biological target: Fibroblast growth factor receptor 2 (Mus musculus) (UniProt P21803); assay: Inhibition of FGFR2 phosphorylation in mouse BaF3 cells harbouring FGFR2 V564F mutant measured after 6 hrs by Western blot analysis; assay type: cell-based; conditions: dose 0-1000 nM
Fibroblast growth factor receptor 2 (Mus musculus), sequence (P21803 whole entry): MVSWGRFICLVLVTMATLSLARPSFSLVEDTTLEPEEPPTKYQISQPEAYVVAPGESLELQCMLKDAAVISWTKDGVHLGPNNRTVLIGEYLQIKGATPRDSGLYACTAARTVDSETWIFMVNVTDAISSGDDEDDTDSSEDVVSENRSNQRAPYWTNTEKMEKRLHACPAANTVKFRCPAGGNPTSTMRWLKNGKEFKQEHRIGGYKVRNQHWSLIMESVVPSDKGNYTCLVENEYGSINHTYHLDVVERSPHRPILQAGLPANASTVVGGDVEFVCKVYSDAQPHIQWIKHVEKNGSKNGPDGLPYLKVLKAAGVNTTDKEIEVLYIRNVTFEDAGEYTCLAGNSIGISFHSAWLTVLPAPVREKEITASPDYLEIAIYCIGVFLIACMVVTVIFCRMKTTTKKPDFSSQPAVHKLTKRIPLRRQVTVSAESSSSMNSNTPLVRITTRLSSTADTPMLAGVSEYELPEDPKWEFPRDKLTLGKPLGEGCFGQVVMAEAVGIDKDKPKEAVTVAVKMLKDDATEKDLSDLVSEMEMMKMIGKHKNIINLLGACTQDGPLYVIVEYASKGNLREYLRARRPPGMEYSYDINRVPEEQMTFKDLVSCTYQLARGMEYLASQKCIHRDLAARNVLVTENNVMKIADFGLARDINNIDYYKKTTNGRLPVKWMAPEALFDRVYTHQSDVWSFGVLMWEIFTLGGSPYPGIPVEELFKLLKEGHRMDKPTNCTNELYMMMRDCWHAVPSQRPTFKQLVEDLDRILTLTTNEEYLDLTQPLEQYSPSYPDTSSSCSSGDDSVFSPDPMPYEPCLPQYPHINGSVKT

[19] = Induction of apoptosis in human KATO III stomach cancer cell line assessed as necrotic cells at 1000 nM incubated for 48 hrs by annexin V-FITC/PI staining based flow cytometry analysis (reference value: 0.072%); assay type: functional
[20] = Induction of apoptosis in human KATO III stomach cancer cell line assessed as viable cells at 1000 nM incubated for 48 hrs by annexin V-FITC/PI staining based flow cytometry analysis (reference value: 90.1%); assay type: functional; conditions: read-out: Activity
[21] = Induction of apoptosis in human KATO III stomach cancer cell line assessed as late apoptotic cells at 10 nM incubated for 48 hrs by annexin V-FITC/PI staining based flow cytometry analysis (reference value: 6.39%); assay type: functional
[22] = Induction of apoptosis in human KATO III stomach cancer cell line assessed as late apoptotic cells at 100 nM incubated for 48 hrs by annexin V-FITC/PI staining based flow cytometry analysis (reference value: 6.39%); assay type: functional
[23] = Induction of apoptosis in human KATO III stomach cancer cell line assessed as necrotic cells at 10 nM incubated for 48 hrs by annexin V-FITC/PI staining based flow cytometry analysis (reference value: 0.072%); assay type: functional
[24] = Induction of apoptosis in human KATO III stomach cancer cell line assessed as early apoptotic cells at 10 nM incubated for 48 hrs by annexin V-FITC/PI staining based flow cytometry analysis (reference value: 3.40%); assay type: functional
[25] = Induction of apoptosis in human KATO III stomach cancer cell line assessed as early apoptotic cells at 100 nM incubated for 48 hrs by annexin V-FITC/PI staining based flow cytometry analysis (reference value: 3.40%); assay type: functional
[26] = Induction of apoptosis in human KATO III stomach cancer cell line assessed as viable cells at 10 nM incubated for 48 hrs by annexin V-FITC/PI staining based flow cytometry analysis (reference value: 90.1%); assay type: functional; conditions: read-out: Activity
[27] = Induction of apoptosis in human KATO III stomach cancer cell line assessed as late apoptotic cells at 1000 nM incubated for 48 hrs by annexin V-FITC/PI staining based flow cytometry analysis (reference value: 6.39%); assay type: functional
[28] = Induction of cell cycle arrest in human KATO III stomach cancer cell line assessed as accumulation of cells at S phase at 100 nM measured after 24 hrs by PI staining based flow cytometry analysis (reference value: 28.3%); assay type: functional
BaF3 [29] = assay: Effect on AKT protein level in mouse BaF3 cells harbouring FGFR2 V564F mutant at 0 to 1000 nM measured after 6 hrs by Western blot analysis; assay type: functional, cell-based; conditions: dose 0-1000 nM
[30] = biological target: Fibroblast growth factor receptor 3 (Homo sapiens, UniProt P22607); assay: Inhibition of FGFR3 (unknown origin) using Tyr 04 peptide as substrate incubated for 1 hr by FRET based Z-lyte assay
Fibroblast growth factor receptor 3, sequence (P22607 whole entry): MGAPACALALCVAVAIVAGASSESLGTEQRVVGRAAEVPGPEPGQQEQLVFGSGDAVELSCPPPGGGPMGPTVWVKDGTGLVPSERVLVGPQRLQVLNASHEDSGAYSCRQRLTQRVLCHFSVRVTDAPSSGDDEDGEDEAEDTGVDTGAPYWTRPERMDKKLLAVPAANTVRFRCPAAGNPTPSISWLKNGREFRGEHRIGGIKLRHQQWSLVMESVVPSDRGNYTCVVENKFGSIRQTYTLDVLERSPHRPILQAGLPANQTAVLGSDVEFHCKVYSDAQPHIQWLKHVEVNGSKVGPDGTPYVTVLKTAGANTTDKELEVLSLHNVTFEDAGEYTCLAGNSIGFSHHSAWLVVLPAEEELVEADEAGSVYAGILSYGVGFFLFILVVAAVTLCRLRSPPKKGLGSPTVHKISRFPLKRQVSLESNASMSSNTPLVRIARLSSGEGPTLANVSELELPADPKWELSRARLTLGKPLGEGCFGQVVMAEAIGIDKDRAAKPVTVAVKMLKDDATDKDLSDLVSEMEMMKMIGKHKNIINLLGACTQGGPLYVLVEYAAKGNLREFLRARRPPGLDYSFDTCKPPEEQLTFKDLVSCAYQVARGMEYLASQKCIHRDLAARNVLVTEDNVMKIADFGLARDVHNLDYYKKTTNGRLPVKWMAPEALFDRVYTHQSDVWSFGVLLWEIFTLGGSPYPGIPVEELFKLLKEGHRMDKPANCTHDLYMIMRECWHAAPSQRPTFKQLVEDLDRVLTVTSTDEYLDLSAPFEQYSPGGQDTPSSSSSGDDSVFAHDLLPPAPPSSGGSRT

[31] = Induction of apoptosis in human KATO III stomach cancer cell line assessed as viable cells at 100 nM incubated for 48 hrs by annexin V-FITC/PI staining based flow cytometry analysis (reference value: 90.1%); assay type: functional; conditions: read-out: Activity
BaF3 [32] = assay: Antiproliferative activity against mouse BaF3 cells harbouring FGFR2 V564F mutant assessed as reduction in cell viability incubated for 72 hrs by CCK-8 method; assay type: functional, cell-based; conditions: BaF3, 72 h
KATO III = assay: Induction of cell cycle arrest in human KATO III stomach cancer cell line assessed as accumulation of cells at G1 phase measured after 24 hrs by PI staining based flow cytometry analysis; assay type: functional; conditions: dose 10-1000 nM
[33] = Induction of cell cycle arrest in human KATO III stomach cancer cell line assessed as accumulation of cells at G1 phase at 1000 nM measured after 24 hrs by PI staining based flow cytometry analysis (reference value: 29.8%); assay type: functional
[34] = Induction of cell cycle arrest in human KATO III stomach cancer cell line assessed as accumulation of cells at S phase at 10 nM measured after 24 hrs by PI staining based flow cytometry analysis (reference value: 28.3%); assay type: functional
SNU-16 [35] = assay: Inhibition of AKT phosphorylation in human SNU-16 measured after 2 hrs by Western blot analysis; assay type: cell-based; conditions: dose 0-300 nM

Fibroblast growth factor receptor 1, sequence (P11362 whole entry): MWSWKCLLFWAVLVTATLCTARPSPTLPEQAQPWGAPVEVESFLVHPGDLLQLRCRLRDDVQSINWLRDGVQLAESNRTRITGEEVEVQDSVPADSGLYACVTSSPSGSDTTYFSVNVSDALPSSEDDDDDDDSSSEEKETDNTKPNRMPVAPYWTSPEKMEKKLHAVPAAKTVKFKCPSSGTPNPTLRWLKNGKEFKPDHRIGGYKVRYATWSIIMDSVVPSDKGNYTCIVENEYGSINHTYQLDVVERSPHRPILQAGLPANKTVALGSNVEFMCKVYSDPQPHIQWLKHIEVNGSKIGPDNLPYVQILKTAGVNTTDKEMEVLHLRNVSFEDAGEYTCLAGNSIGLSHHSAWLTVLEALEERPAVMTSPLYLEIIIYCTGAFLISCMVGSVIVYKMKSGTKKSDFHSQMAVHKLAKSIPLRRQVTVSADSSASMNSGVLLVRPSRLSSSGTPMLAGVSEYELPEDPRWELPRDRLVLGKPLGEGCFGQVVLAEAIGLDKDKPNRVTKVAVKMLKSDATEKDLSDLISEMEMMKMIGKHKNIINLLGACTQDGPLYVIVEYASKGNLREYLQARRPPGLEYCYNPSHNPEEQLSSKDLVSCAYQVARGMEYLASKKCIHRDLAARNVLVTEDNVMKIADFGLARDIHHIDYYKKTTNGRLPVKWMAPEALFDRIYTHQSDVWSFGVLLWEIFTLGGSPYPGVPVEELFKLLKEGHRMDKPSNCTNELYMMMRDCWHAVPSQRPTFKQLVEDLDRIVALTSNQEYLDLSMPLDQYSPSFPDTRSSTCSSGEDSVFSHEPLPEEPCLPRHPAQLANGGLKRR

C=CC(=O)Nc1ccccc1Cn1nc(C#Cc2ccc3[nH]c(C)nc3c2)c(C(N)=O)c1N
IC50 [1]: 0.88 µM

C=CC(=O)Nc1ccc(Cn2nc(C#Cc3ccc4[nH]c(C)nc4c3)c3c(N)ncnc32)cc1
IC50 [1]: 0.68 µM

C=CC(=O)Nc1cccc(Cn2nc(C#Cc3c(F)cc4[nH]c(C)nc4c3F)c(C(N)=O)c2NC)c1
IC50 [1]: > 10 µM

C=CC(=O)Nc1ccc(CCCn2nc(C#Cc3cc(OC)cc(OC)c3)c3c(N)ncnc32)cc1
IC50 [1]: 1.59 µM

O=C(c1ccc(F)cc1)C1CCN(CCn2c(=O)[nH]c3ccccc3c2=O)CC1 [KETANSERIN]
CLint scaled at 1 µM [2]: 36.7 mL/min/kg | CLhep predicted at 1 µM [3]: 13.2 mL/min/kg | half-life at 1 µM [4]: 43.7 min | hepatic extraction ratio at 0.75 h, 1 µM [5]: 0.639

C=CC(=O)Nc1ccc(CCn2nc(C#Cc3cc(OC)cc(OC)c3)c3c(N)ncnc32)cc1
IC50 [1]: 3.46 µM

C=CC(=O)Nc1ccc(Cn2nc(C#Cc3ccc4sc(C)nc4c3)c(C(N)=O)c2N)cc1
IC50 [1]: 0.95 µM

C=CC(=O)Nc1ccc(Cn2nc(C#Cc3ccc4oc(C)nc4c3)c(C(N)=O)c2N)cc1
IC50 [1]: 0.61 µM

C=CC(=O)Nc1ccc(Cn2nc(C#Cc3c(F)cc4[nH]c(C)nc4c3F)c(C(N)=O)c2N)cc1
IC50 [1]: 0.13 µM

C=CC(=O)Nc1ccc(Cn2nc(-c3cc4cc(C)cc(OC)c4s3)c3c(N)ncnc32)cc1
IC50 [1]: 0.023 µM

C=CC(=O)Nc1ccc(Cn2nc(-c3ccc(Oc4ccccc4)cc3)c3c(N)ncnc32)cc1
IC50 [1]: 4.8 µM

C=CC(=O)Nc1ccc(CCCCn2nc(C#Cc3cc(OC)cc(OC)c3)c3c(N)ncnc32)cc1
IC50 [1]: 2.34 µM

C=CC(=O)N1CC[C@H](n2nc(C#Cc3cc(OC)cc(OC)c3)c3c(N)ncnc32)C1 [FUTIBATINIB]
IC50 (NCI-H520): 0.014 µM | IC50 (SNU-16 [6]): 0.00044 µM | IC50 [7]: 0.004 µM

C=CC(=O)Nc1ccc(Cn2nc(-c3ccc4[nH]c(C)nc4c3)c3c(N)ncnc32)cc1
IC50 [1]: 2 µM

C=CC(=O)Nc1cccc(Cn2nc(C#Cc3c(F)cc4[nH]c(C)nc4c3F)c(C(N)=O)c2NCCOC)c1
IC50 [1]: 2.91 µM

C=CC(=O)Nc1ccc(Cn2nc(C#Cc3cc(OC)cc(OC)c3)c3c(N)ncnc32)cc1
IC50 [1]: 0.66 µM

C=CC(=O)Nc1cccc(Cn2nc(C#Cc3c(F)cc4[nH]c(C)nc4c3F)c(C(N)=O)c2N)c1
IC50 [8]: 0.062 µM | Activity (BaF3 [9]): Active | Activity [10]: 59.4% | Activity [11]: 35.3% | inhibition (BaF3 [12]): Dose-Dependent Effect | Activity [13]: 10.1% | Activity [14]: 0.27% | IC50 [15]: 0.041 µM | inhibition [16]: Dose-Dependent Effect | Activity [17]: 35.7% | inhibition [18]: Dose-Dependent Effect | Activity [19]: 0.085% | viability at 1 µM [20]: 77.1% | Activity [21]: 7.38% | IC50 (NCI-H520): 0.073 µM | Activity [22]: 8.53% | CLint scaled at 1 µM [2]: 34.5 mL/min/kg | IC50 (SNU-16 [6]): 0.019 µM | Activity [23]: 0.065% | Activity [24]: 5.84% | CLhep predicted at 1 µM [3]: 12.9 mL/min/kg | Activity [25]: 8.85% | viability at 0.01 µM [26]: 86.7% | Activity [27]: 12.7% | Activity [28]: 3.33% | Activity (BaF3 [29]): Active | IC50 [30]: 0.099 µM | half-life at 1 µM [4]: 46.4 min | IC50 [7]: 0.059 µM | viability at 0.1 µM [31]: 82.4% | IC50 (BaF3 [32]): 0.087 µM | Activity (KATO III): Dose-Dependent Effect | Activity [33]: 66.4% | Activity [34]: 25.5% | inhibition (SNU-16 [35]): Dose-Dependent Effect

C=CC(=O)Nc1ccc(Cn2nc(C#Cc3ccc4[nH]c(C)nc4c3)c(C(N)=O)c2N)cc1
IC50 [1]: 0.32 µM

C=CC(=O)Nc1cccc(Cn2nc(C#Cc3c(F)cc4[nH]c(C)nc4c3F)c(C(N)=O)c2NCC)c1
IC50 [1]: > 10 µM

C=CC(=O)Nc1ccc(Cn2nc(C#Cc3ccc(-c4c[nH]c(C)n4)cc3)c(C(N)=O)c2N)cc1
IC50 [1]: > 10 µM

C=CC(=O)Nc1ccc(Cn2nc(-c3ccc(Oc4nccc(C)n4)c(F)c3)c3c(N)ncnc32)cc1
IC50 [1]: > 10 µM
